# From ChEMBL document CHEMBL1153245, “A profile of the in vitro anti-tumor activity of imidazolium-based ionic liquids” (2010)
# Assays:
# Type in all cases: functional
# CCRF-CEM = experiment: Anticancer activity against human CCRF-CEM cells assessed cell growth at 10 uM after 48 hrs by sulforhodamine B assay relative to control
# OVCAR-3 = experiment: Anticancer activity against human OVCAR-3 cells assessed cell growth at 10 uM after 48 hrs by sulforhodamine B assay relative to control
# UACC-62 = experiment: Anticancer activity against human UACC62 cells assessed cell growth at 10 uM after 48 hrs by sulforhodamine B assay relative to control
# MDA-MB-435 = experiment: Anticancer activity against human MDA-MB-435 cells assessed cell growth at 10 uM after 48 hrs by sulforhodamine B assay relative to control
# NCI-H522 = experiment: Anticancer activity against human NCI-H522 cells assessed cell growth at 10 uM after 48 hrs by sulforhodamine B assay relative to control
# NCI-H322M = experiment: Anticancer activity against human NCI-H322M cells assessed cell growth at 10 uM after 48 hrs by sulforhodamine B assay relative to control
# Malme-3M = experiment: Anticancer activity against human MALME-3M cells assessed cell growth at 10 uM after 48 hrs by sulforhodamine B assay relative to control
# OVCAR-4 = experiment: Anticancer activity against human OVCAR4 cells assessed cell growth at 10 uM after 48 hrs by sulforhodamine B assay relative to control
# RXF 393 = experiment: Anticancer activity against human RXF393 cells assessed cell growth at 10 uM after 48 hrs by sulforhodamine B assay relative to control
# A498 = experiment: Anticancer activity against human A498 cells assessed cell growth at 10 uM after 48 hrs by sulforhodamine B assay relative to control
# T47D = experiment: Anticancer activity against human T47D cells assessed cell growth at 10 uM after 48 hrs by sulforhodamine B assay relative to control
# HCT-116 = experiment: Anticancer activity against human HCT116 cells assessed cell growth at 10 uM after 48 hrs by sulforhodamine B assay relative to control
# HT-29 = experiment: Anticancer activity against human HT-29 cells assessed cell growth at 10 uM after 48 hrs by sulforhodamine B assay relative to control
# PC-3 = experiment: Anticancer activity against human PC3 cells assessed cell growth at 10 uM after 48 hrs by sulforhodamine B assay relative to control
# [1] = Anticancer activity against human RPMI8266 cells assessed cell growth at 10 uM after 48 hrs by sulforhodamine B assay relative to control
# IGROV-1 = experiment: Anticancer activity against human IGROV1 cells assessed cell growth at 10 uM after 48 hrs by sulforhodamine B assay relative to control
# LOX IMVI = experiment: Anticancer activity against human LOXIMVI cells assessed cell growth at 10 uM after 48 hrs by sulforhodamine B assay relative to control
# BT-549 = experiment: Anticancer activity against human BT549 cells assessed cell growth at 10 uM after 48 hrs by sulforhodamine B assay relative to control
# NCI/ADR-RES = experiment: Anticancer activity against human NCI/ADR-RES cells assessed cell growth at 10 uM after 48 hrs by sulforhodamine B assay relative to control
# DU-145 = experiment: Anticancer activity against human DU145 cells assessed cell growth at 10 uM after 48 hrs by sulforhodamine B assay relative to control
# SK-MEL-28 = experiment: Anticancer activity against human SK-MEL-28 cells assessed cell growth at 10 uM after 48 hrs by sulforhodamine B assay relative to control
# MOLT-4 = experiment: Anticancer activity against human MOLT4 cells assessed cell growth at 10 uM after 48 hrs by sulforhodamine B assay relative to control
# SNB-75 = experiment: Anticancer activity against human SNB75 cells assessed cell growth at 10 uM after 48 hrs by sulforhodamine B assay relative to control
# SF-539 = experiment: Anticancer activity against human SF539 cells assessed cell growth at 10 uM after 48 hrs by sulforhodamine B assay relative to control
# CAKI-1 = experiment: Anticancer activity against human Caki1 cells assessed cell growth at 10 uM after 48 hrs by sulforhodamine B assay relative to control
# A549 = experiment: Anticancer activity against human A549 cells assessed cell growth at 10 uM after 48 hrs by sulforhodamine B assay relative to control
# KM12 = experiment: Anticancer activity against human KM12 cells assessed cell growth at 10 uM after 48 hrs by sulforhodamine B assay relative to control
# COLO 205 = experiment: Anticancer activity against human COLO205 cells assessed cell growth at 10 uM after 48 hrs by sulforhodamine B assay relative to control
# U-251 = experiment: Anticancer activity against human U251 cells assessed cell growth at 10 uM after 48 hrs by sulforhodamine B assay relative to control
# SK-OV-3 = experiment: Anticancer activity against human SKOV3 cells assessed cell growth at 10 uM after 48 hrs by sulforhodamine B assay relative to control
# SNB-19 = experiment: Anticancer activity against human SNB19 cells assessed cell growth at 10 uM after 48 hrs by sulforhodamine B assay relative to control
# HCC 2998 = experiment: Anticancer activity against human HCC2998 cells assessed cell growth at 10 uM after 48 hrs by sulforhodamine B assay relative to control
# MDA-MB-468 = experiment: Anticancer activity against human MDA-MB-468 cells assessed cell growth at 10 uM after 48 hrs by sulforhodamine B assay relative to control
# MCF7 = experiment: Anticancer activity against human MCF7 cells assessed cell growth at 10 uM after 48 hrs by sulforhodamine B assay relative to control
# SN12C = experiment: Anticancer activity against human SN12C cells assessed cell growth at 10 uM after 48 hrs by sulforhodamine B assay relative to control
# SW-620 = experiment: Anticancer activity against human SW620 cells assessed cell growth at 10 uM after 48 hrs by sulforhodamine B assay relative to control
# OVCAR-8 = experiment: Anticancer activity against human OVCAR8 cells assessed cell growth at 10 uM after 48 hrs by sulforhodamine B assay relative to control
# HL-60(TB) = experiment: Anticancer activity against human HL-60(TB) cells assessed cell growth at 10 uM after 48 hrs by sulforhodamine B assay relative to control
# M14 = experiment: Anticancer activity against human M14 cells assessed cell growth at 10 uM after 48 hrs by sulforhodamine B assay relative to control
# NCI-H23 = experiment: Anticancer activity against human NCI-H23 cells assessed cell growth at 10 uM after 48 hrs by sulforhodamine B assay relative to control
# UO-31 = experiment: Anticancer activity against human UO31 cells assessed cell growth at 10 uM after 48 hrs by sulforhodamine B assay relative to control
# SF-295 = experiment: Anticancer activity against human SF295 cells assessed cell growth at 10 uM after 48 hrs by sulforhodamine B assay relative to control
# SR = experiment: Anticancer activity against human SR cells assessed cell growth at 10 uM after 48 hrs by sulforhodamine B assay relative to control
smiles,measurement,setting,value
CCCCCC[n+]1ccn(C)c1.FC(F)(F)C(F)(F)[P-](F)(F)(F)(C(F)(F)C(F)(F)F)C(F)(F)C(F)(F)F,Activity,CCRF-CEM,65.92%
same,Activity,OVCAR-3,94.84%
same,Activity,UACC-62,68.28%
same,Activity,MDA-MB-435,51.22%
same,Activity,NCI-H522,58.3%
same,Activity,NCI-H322M,77.95%
same,Activity,Malme-3M,102.23%
same,Activity,OVCAR-4,59.66%
same,Activity,RXF 393,92.19%
same,Activity,A498,75.58%
same,Activity,T47D,55.53%
same,Activity,HCT-116,32.03%
same,Activity,HT-29,66.89%
same,Activity,PC-3,86.43%
same,Activity,[1],53.67%
same,Activity,IGROV-1,78.12%
same,Activity,LOX IMVI,59.38%
same,Activity,BT-549,54.78%
same,Activity,NCI/ADR-RES,54.24%
same,Activity,DU-145,107.66%
same,Activity,SK-MEL-28,100.39%
same,Activity,MOLT-4,81.53%
same,Activity,SNB-75,88.07%
same,Activity,SF-539,75.55%
same,Activity,CAKI-1,53.43%
same,Activity,A549,56.87%
same,Activity,KM12,91.54%
same,Activity,COLO 205,97.72%
same,Activity,U-251,78.65%
same,Activity,SK-OV-3,85.24%
same,Activity,SNB-19,82.22%
same,Activity,HCC 2998,76.85%
same,Activity,MDA-MB-468,39.66%
same,Activity,MCF7,62.49%
same,Activity,SN12C,87.26%
same,Activity,SW-620,80.17%
same,Activity,OVCAR-8,60.84%
same,Activity,HL-60(TB),96.2%
same,Activity,M14,88.81%
same,Activity,NCI-H23,45.51%
same,Activity,UO-31,71.06%
same,Activity,SF-295,70.02%
same,Activity,SR,77.17%
CCCCCCCCCCCCCCCC[n+]1ccn(C)c1.[Cl-],Activity,CCRF-CEM,33.57%
same,Activity,OVCAR-3,-24.76%
same,Activity,UACC-62,-94.58%
same,Activity,MDA-MB-435,-55.77%
same,Activity,NCI-H522,-87.38%
same,Activity,NCI-H322M,8.28%
same,Activity,Malme-3M,-77.38%
same,Activity,OVCAR-4,-54.83%
same,Activity,RXF 393,-66.19%
same,Activity,A498,-65.31%
same,Activity,T47D,-0.13%
same,Activity,HCT-116,-87.23%
same,Activity,HT-29,-100%
same,Activity,PC-3,-100%
same,Activity,[1],15.77%
same,Activity,IGROV-1,-67.13%
same,Activity,LOX IMVI,-50.37%
same,Activity,BT-549,-65.21%
same,Activity,NCI/ADR-RES,37.13%
same,Activity,DU-145,-69.69%
same,Activity,SK-MEL-28,-86.22%
same,Activity,MOLT-4,17.19%
same,Activity,SNB-75,-98.62%
same,Activity,SF-539,-98.59%
same,Activity,CAKI-1,-83.54%
same,Activity,A549,-50.92%
same,Activity,KM12,-83.88%
same,Activity,COLO 205,-45.99%
same,Activity,U-251,-69.96%
same,Activity,SK-OV-3,-33.78%
same,Activity,SNB-19,-75.88%
same,Activity,HCC 2998,-94.43%
same,Activity,MDA-MB-468,-78.99%
same,Activity,MCF7,-79.92%
same,Activity,SN12C,-94.61%
same,Activity,SW-620,-66.67%
same,Activity,OVCAR-8,-53.71%
same,Activity,HL-60(TB),45.73%
same,Activity,M14,-73.7%
same,Activity,NCI-H23,-51.9%
same,Activity,UO-31,-85.85%
same,Activity,SF-295,-39.48%
same,Activity,SR,15.17%
COCC[n+]1ccn(C)c1.O=S(=O)([N-]S(=O)(=O)C(F)(F)F)C(F)(F)F,Activity,CCRF-CEM,55.66%
same,Activity,OVCAR-3,116.33%
same,Activity,UACC-62,105.79%
same,Activity,MDA-MB-435,117.7%
same,Activity,NCI-H522,84.3%
same,Activity,NCI-H322M,102.08%
same,Activity,Malme-3M,125.61%
same,Activity,OVCAR-4,105.25%
same,Activity,RXF 393,103.9%
same,Activity,A498,75.43%
same,Activity,T47D,100.59%
same,Activity,HCT-116,102.12%
same,Activity,HT-29,111.85%
same,Activity,PC-3,78.17%
same,Activity,[1],62.23%
same,Activity,IGROV-1,77.53%
same,Activity,LOX IMVI,92.96%
same,Activity,BT-549,96.44%
same,Activity,NCI/ADR-RES,100.1%
same,Activity,DU-145,99.43%
same,Activity,SK-MEL-28,106.63%
same,Activity,MOLT-4,105.9%
same,Activity,SNB-75,80.79%
same,Activity,SF-539,94.09%
same,Activity,CAKI-1,91.87%
same,Activity,A549,101.69%
same,Activity,KM12,105.57%
same,Activity,COLO 205,130.61%
same,Activity,U-251,91.58%
same,Activity,SK-OV-3,107.49%
same,Activity,SNB-19,93.88%
same,Activity,HCC 2998,101.04%
same,Activity,MDA-MB-468,106.36%
same,Activity,MCF7,101.56%
same,Activity,SN12C,96.96%
same,Activity,SW-620,99.89%
same,Activity,OVCAR-8,96.68%
same,Activity,HL-60(TB),103.77%
same,Activity,M14,110.1%
same,Activity,NCI-H23,96.12%
same,Activity,UO-31,71.37%
same,Activity,SF-295,112.28%
same,Activity,SR,116.69%
CCCCCCCC[n+]1ccn(C)c1.[Cl-],Activity,CCRF-CEM,121.49%
same,Activity,OVCAR-3,81.96%
same,Activity,UACC-62,81.12%
same,Activity,MDA-MB-435,70.46%
same,Activity,NCI-H522,72.78%
same,Activity,NCI-H322M,95.53%
same,Activity,Malme-3M,80.97%
same,Activity,OVCAR-4,61.98%
same,Activity,RXF 393,78.03%
same,Activity,A498,101.4%
same,Activity,T47D,87.08%
same,Activity,HCT-116,62.3%
same,Activity,HT-29,69.97%
same,Activity,PC-3,97.45%
same,Activity,[1],122.18%
same,Activity,IGROV-1,96.33%
same,Activity,LOX IMVI,71.93%
same,Activity,BT-549,81.23%
same,Activity,NCI/ADR-RES,95.09%
same,Activity,DU-145,99.82%
same,Activity,SK-MEL-28,120.13%
same,Activity,MOLT-4,81.09%
same,Activity,SNB-75,83.9%
same,Activity,SF-539,71.01%
same,Activity,CAKI-1,66.65%
same,Activity,A549,85.73%
same,Activity,KM12,81.14%
same,Activity,COLO 205,97.68%
same,Activity,U-251,79.77%
same,Activity,SK-OV-3,98.42%
same,Activity,SNB-19,91.91%
same,Activity,HCC 2998,77.19%
same,Activity,MDA-MB-468,46.81%
same,Activity,MCF7,79.81%
same,Activity,SN12C,93.85%
same,Activity,SW-620,89.37%
same,Activity,OVCAR-8,77.68%
same,Activity,HL-60(TB),94.06%
same,Activity,M14,87.47%
same,Activity,NCI-H23,62.26%
same,Activity,UO-31,85.09%
same,Activity,SF-295,101.39%
same,Activity,SR,88.57%
